Experimental data: US6420558B1, “Aminopiperidine derivates as integrin αvβ3 antagonists” (Meiji Seika Kaisha, Ltd., priority 1998, dated 2002)

Target: T1, integrin α5β1 (fibronectin receptor purified from the human placenta) (Homo sapiens, UniProt P05556+P08648)
T1 construct: a fibronectin receptor (protein content: 52.1 μg/ml) purified from the human placenta; from tissue; host or cells: human placenta
Test: α5β1 binding assay (fibronectin-fibronectin receptor binding assay)
Conditions: fibronectin binding to human placenta fibronectin receptor; read-out: α5β1 Binding inhibitory activity
Method: Integrin α5β1 antagonistic activity (lethality) was measured for the compounds according to the present invention in a fibronectin-fibronectin receptor binding assay system in accordance with the method of Kouns et al. (W. C. Kouns, D. Kirchhofer, P. Hadvary, A. Edenhofer, T. Weller, G. Pfenninger, H. R. Baumgartner, L. K. Jennings, and B. Steiner, Blood, 80, 2539-2547 (1992)).
Specifically, a fibronectin receptor (protein content: 52.1 μg/ml) purified from the human placenta by the method of Pytela et al. (R. Pytela, M. D. Pierschbacher, S. Argraves, S. Suzuki, and E. Ruoslahti, Method in Enzymology, 144, 475-489 (1987)) was diluted 25 times with TBS (20 mM Tris-HCl, 150 mM NaCl, 1 mM CaCl2, 1 mM MgCl2, pH 7.4), and distributed and coated on wells (50 μl/well) of a plate (Maxisorp, Nunc, 96 well Immuno Plate). The plate was then allowed to stand at 4° C. for one day, washed twice with TBS (200 μl/well), and then subjected to blocking with TBS (150 μl/well) containing 3% skim milk (DIFCO) at 4° C. overnight. After washing twice with TBS (200 μl/well) containing 0.05% Tween-20 and then washing twice with TBS (200 μl/well), purification was carried out according to the method of E. Engvall et al. (E. Engvall, E. Ruoslahti, and E. J. Miller, J. Exp. Med., 147, 1584-1595 (1978)), and 50 […] of fibronectin adjusted to 0.2 μg/ml by the addition of TBS (TBS-Tween) containing 0.01% Tween-20 was mixed with 50 μl of each test compound adjusted to each concentration in the wells, and a reaction was allowed to proceed at room temperature for 3 hr. After the completion of the reaction, the wells were washed five times with TBS-Tween. A solution prepared by diluting a peroxidase-labeled fibronectin antibody (CAPPEL) 500 times with TBS-Tween was added in an amount of 50 μl per well, and a reaction was allowed to proceed at room temperature for 1.5 hr. After washing five times with TBS-Tween (200 μl/well), ABTS (SIGMA) adjusted to 1 mg/ml by the addition of a ten-fold diluted POD-buffer (ZYMED) was added in an amount of 50 μl/well, and a reaction was allowed to proceed for 5 to 10 min. A 0.1 M citric acid buffer (pH 4.3) containing 0.05% NaN3 was added in an amount of 50 μl/well to stop the reaction, followed by the measurement of the absorbance at 415 nm with a microplate reader (MTP 32, Corona Electric) (reference: 675 nm). The total binding was defined as the absorbance after a reaction using 50 μl of TBS-Tween instead of the test compound, and the non-specific binding (100% inhibition) was defined as the absorbance after a reaction using 50 μl of TBS-Tween containing 2×10^−3 M RGDS. The inhibition was calculated by the following equation: [formula]
IC50 was determined from a primary regression line of the logarithm of each concentration of the test compound and the logarithm of (100−inhibition)/inhibition.

T1 sequence (P08648 42-894 limits assumed): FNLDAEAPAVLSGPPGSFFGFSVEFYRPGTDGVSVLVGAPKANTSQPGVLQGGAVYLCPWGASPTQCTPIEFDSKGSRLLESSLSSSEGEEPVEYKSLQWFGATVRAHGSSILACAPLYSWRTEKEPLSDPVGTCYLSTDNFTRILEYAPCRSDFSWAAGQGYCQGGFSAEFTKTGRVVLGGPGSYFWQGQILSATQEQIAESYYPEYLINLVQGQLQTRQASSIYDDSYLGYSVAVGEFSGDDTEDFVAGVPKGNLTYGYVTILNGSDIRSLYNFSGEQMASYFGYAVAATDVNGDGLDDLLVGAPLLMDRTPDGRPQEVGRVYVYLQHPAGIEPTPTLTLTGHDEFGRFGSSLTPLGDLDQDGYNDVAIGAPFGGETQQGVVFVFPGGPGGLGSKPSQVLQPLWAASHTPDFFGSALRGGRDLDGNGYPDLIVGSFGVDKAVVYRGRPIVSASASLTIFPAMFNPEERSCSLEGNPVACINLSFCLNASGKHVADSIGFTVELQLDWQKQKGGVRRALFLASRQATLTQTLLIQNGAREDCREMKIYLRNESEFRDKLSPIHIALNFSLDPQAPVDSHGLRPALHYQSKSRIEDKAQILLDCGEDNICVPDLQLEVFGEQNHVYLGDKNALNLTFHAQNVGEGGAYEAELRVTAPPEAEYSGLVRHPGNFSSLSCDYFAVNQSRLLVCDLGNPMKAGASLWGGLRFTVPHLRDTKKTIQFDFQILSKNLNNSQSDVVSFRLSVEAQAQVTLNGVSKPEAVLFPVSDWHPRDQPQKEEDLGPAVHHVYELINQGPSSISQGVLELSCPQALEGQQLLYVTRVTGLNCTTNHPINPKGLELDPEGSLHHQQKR
T1 sequence (P08648 895-1049 limits assumed): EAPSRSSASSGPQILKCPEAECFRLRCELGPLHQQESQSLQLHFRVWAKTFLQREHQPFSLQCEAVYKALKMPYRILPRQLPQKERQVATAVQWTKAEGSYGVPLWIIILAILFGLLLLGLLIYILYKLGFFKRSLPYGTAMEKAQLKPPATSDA
T1 sequence (P05556 21-798): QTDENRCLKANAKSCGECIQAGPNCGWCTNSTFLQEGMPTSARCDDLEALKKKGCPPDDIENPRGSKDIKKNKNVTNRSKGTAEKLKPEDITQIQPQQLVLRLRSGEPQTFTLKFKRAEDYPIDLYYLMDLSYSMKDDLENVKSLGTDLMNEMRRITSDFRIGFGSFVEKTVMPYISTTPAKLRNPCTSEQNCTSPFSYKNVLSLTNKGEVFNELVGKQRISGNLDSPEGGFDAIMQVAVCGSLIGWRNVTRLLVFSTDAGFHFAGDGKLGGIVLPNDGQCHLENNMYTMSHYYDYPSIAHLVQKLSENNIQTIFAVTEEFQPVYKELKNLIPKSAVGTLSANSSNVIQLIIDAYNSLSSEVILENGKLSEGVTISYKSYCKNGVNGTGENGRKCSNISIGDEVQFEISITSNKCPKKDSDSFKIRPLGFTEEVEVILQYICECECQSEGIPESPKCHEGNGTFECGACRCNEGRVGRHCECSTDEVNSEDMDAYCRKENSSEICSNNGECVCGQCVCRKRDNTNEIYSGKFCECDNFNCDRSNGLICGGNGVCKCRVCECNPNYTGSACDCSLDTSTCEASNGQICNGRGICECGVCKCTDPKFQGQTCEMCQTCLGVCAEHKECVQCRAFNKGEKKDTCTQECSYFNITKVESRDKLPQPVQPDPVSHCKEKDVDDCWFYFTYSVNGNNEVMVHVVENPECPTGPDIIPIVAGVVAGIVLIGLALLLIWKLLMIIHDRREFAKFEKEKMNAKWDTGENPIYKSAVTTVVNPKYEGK

## O=C(NC[C@H](NS(=O)(=O)c1ccccc1)C(=O)O)c1ccc(N2CCC(NC3=NCCCN3)CC2)c(F)c1 [Example 52, (2S)-Benzenesulfonylamino-3-[3-fluoro-4-{4-(1,4,5,6-tetrahydropyrimidin-2-ylamino)piperidin-1-yl}-benzoylamino]propionic acid]
  IC50: 0.33 µM
